Three molecules from PMC9127493 (Signal Transduction and Targeted Therapy, 2022) can be followed below.

Broadly, the EC50 is the midpoint of the concentration-response curve.

One test concerns SARS-CoV-2 variant Alpha. As to the kind of experiment: microbe, parasite or virus in culture. As to conditions: Severe acute respiratory syndrome coronavirus 2; n = 6. In kind it is cell-based.
A further test concerns SARS-CoV-2 variant Beta. As to the kind of experiment: microbe, parasite or virus in culture. The following applies: Severe acute respiratory syndrome coronavirus 2; n = 6. In kind it is cell-based.
In the next test the test system is SARS-CoV-2 variant Delta. Put plainly: microbe, parasite or virus in culture. The class given is cell-based. As to conditions: Severe acute respiratory syndrome coronavirus 2; n = 6.
The subject of test [1] is SARS-CoV-2 variant Omicron. Put plainly: microbe, parasite or virus in culture. In kind it is cell-based. The following applies: Severe acute respiratory syndrome coronavirus 2; n = 6.
The test system of test [2] is four SARS-CoV-2 variants of concern (VOCs), including Alpha, Beta, Delta and Omicron. The class given is cell-based. The following applies: at 200 nM.
A further test relates to Omicron variant. Put plainly: Cytopathic effect (CPE) inhibition assay in Vero E6 cells. The class given is cell-based, SARS-CoV-2. For orientation: Protection from cytopathic effect is a common read-out in antiviral testing.

With `COc1ccc(C(=O)Nc2cccc(C(F)(F)F)c2)cc1Nc1nc(-c2cccnc2)c2[nH]ccc2n1` [XMU-MP-7], the EC50 was below 6.9 nM in the test on SARS-CoV-2 variant Alpha, 12.4 nM with SARS-CoV-2 variant Beta, below 6.9 nM with SARS-CoV-2 variant Delta and below 6.9 nM in test [1]. Besides, the viral inhibition result in test [2] is on record as “complete viral inhibition”. Also, the “rescue of cytopathic effect” value with Omicron variant is listed as “significantly rescued the cytopathic effects”.
For `CCC(CC)COC(=O)[C@H](C)N[P@](=O)(OC[C@H]1O[C@@](C#N)(c2ccc3c(N)ncnn23)[C@H](O)[C@@H]1O)Oc1ccccc1` [Remdesivir], the EC50 in the test with SARS-CoV-2 variant Alpha stood at 609 nM; in the test on SARS-CoV-2 variant Beta, 495 nM; in the test on SARS-CoV-2 variant Delta it was 938 nM; in test [1] it was 615 nM.
In the case of `Cc1cccc(/C=N/Nc2cc(N3CCOCC3)nc(OCCc3ccccn3)n2)c1` [Apilimod], the EC50 (in the test on SARS-CoV-2 variant Alpha; in the test on SARS-CoV-2 variant Beta; in the test on SARS-CoV-2 variant Delta; in test [1]) was below 6.9 nM throughout. Also, the “rescue of cytopathic effect” value in the test with Omicron variant is listed as “significantly rescued the cytopathic effects”.
